Laboratory results published in publication PMC5054527, “Mechanism of high affinity inhibition of the human urate transporter URAT1” (Scientific Reports, 2016).
Residue numbers refer to the chain shown, from its start. Like-named read-outs stand apart in the source and are kept apart here.

What was measured:
Assay in all cases: URAT1 uric acid transport activity assay
Type in all cases: cell-based
[1] = target: T1, r-N35S/M481I rURAT1 double point mutant (Rattus norvegicus, UniProt Q3ZAV1, M481I/N35S)
T1 construct: hURAT1 and rURAT1 are 553 amino acid proteins with 12 transmembrane segments; expressed in transfected cells; host or cells: HEK-293T
T1 sequence (Q3ZAV1 1-553 N35S/M481I): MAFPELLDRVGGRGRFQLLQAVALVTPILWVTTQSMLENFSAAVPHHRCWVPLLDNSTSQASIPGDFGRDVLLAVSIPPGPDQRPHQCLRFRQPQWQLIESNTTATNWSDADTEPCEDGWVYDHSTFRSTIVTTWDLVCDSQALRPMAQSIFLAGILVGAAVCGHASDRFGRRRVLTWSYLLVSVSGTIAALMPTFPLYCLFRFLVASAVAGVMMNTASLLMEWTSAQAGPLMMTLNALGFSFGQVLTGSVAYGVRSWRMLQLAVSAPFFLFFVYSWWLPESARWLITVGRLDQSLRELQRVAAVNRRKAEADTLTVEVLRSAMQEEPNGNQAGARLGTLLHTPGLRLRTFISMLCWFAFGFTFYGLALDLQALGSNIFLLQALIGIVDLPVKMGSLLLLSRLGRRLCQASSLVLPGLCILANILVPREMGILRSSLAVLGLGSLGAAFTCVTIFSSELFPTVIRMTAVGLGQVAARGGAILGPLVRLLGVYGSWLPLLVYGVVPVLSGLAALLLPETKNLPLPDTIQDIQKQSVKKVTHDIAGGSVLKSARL
Outline: (§1)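 Readout: 14C-uric acid uptake (100 μM, 10 min) in cells transiently transfected one day earlier with mutant rURAT1. Serially diluted inhibitors were added 5 min before substrate. Triplicate points, four-parameter logistic fit for IC50.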

[2] = target: T2, r-V31L rURAT1 point mutant (Rattus norvegicus, UniProt Q3ZAV1, V31L)
T2 construct: expressed in transfected cells; host or cells: HEK-293T
T2 sequence (Q3ZAV1 1-553 V31L): T1 sequence (Q3ZAV1 1-553 N35S/M481I) with V31L, S35N, I481M
Outline: as §1

[3] = target: T3, r-A21T rURAT1 point mutant (Rattus norvegicus, UniProt Q3ZAV1, A21T)
T3 construct: expressed in transfected cells; host or cells: HEK-293T
T3 sequence (Q3ZAV1 1-553 A21T): T1 sequence (Q3ZAV1 1-553 N35S/M481I) with A21T, S35N, I481M
Outline: as §1

In the case of O=C1C(CC[S+]([O-])c2ccccc2)C(=O)N(c2ccccc2)N1c1ccccc1 (stereo not drawn) [sulfinpyrazone], the IC50 ([1]; r-N35S/M481I, HEPES pH 7.3, 100 μM 14C-uric acid, read-out: IC50 (uric acid transport)) is reported as 176 ± 44 µM, the IC50 ([2]; r-V31L, HEPES pH 7.3, 100 μM 14C-uric acid, read-out: IC50 (uric acid transport)) is reported as 266 ± 70 µM and the IC50 ([3]; r-A21T, HEPES pH 7.3, 100 μM 14C-uric acid, read-out: IC50 (uric acid transport)) is reported as 471 ± 81 µM.

Compound O=C(O)CSc1nnc(Br)n1-c1ccc(C2CC2)c2ccccc12 [lesinurad, 2-((5-bromo-4-(4-cyclopropylnaphthalen-1-yl)-4H-1,2,4-triazol-3-yl)thio)acetic acid] has an IC50 ([1]; r-N35S/M481I, MES pH 5.5, 100 μM 14C-uric acid, read-out: IC50 (uric acid transport)) of 29 ± 1.2 µM, an IC50 ([2]; r-V31L, MES pH 5.5, 100 μM 14C-uric acid, read-out: IC50 (uric acid transport)) of 85 ± 4.5 µM and an IC50 ([3]; r-A21T, MES pH 5.5, 100 μM 14C-uric acid, read-out: IC50 (uric acid transport)) of 71 ± 5.9 µM.

With CCc1oc2ccccc2c1C(=O)c1cc(Br)c(O)c(Br)c1 [benzbromarone] the IC50 [1] was 9 ± 1.5 µM, the IC50 [2] was 17 ± 3.4 µM and the IC50 [3] was 22 ± 3.6 µM.
